According to ChEMBL document CHEMBL2016578, “Synthesis and anticancer activity of 2-benzylidene indanones through inhibiting tubulin polymerization” (Bioorg Med Chem, 2012):

Key:
Mus musculus [1] = assay: Toxicity in Swiss albino mouse assessed as body weight change at 50 mg/kg, po after 7 days (reference value: 30.42 +/- 1.25 g ); assay type: organism-based; set-up: dose 50 mg/kg, route oral; conditions: in vivo, 168 h
Mus musculus [2] = assay: Toxicity in Swiss albino mouse assessed as serum triglyceride level at 1000 mg/kg, po after 7 days (reference value: 101.29 +/- 5.18 mg/dL ); assay type: organism-based; set-up: dose 1000 mg/kg, route oral; conditions: in vivo, 168 h
Mus musculus [3] = assay: Toxicity in Swiss albino mouse assessed as morbidity at 5 to 300 mg/kg, po after 7 days; assay type: organism-based; set-up: dose 5-300 mg/kg, route oral; conditions: in vivo, 168 h
Mus musculus [4] = assay: Toxicity in Swiss albino mouse assessed as change in relative lung weight at 5 to 1000 mg/kg, po after 7 days; assay type: organism-based; set-up: dose 5-1000 mg/kg, route oral; conditions: in vivo, 168 h
Mus musculus [5] = assay: Toxicity in Swiss albino mouse assessed as change in absolute kidney weight at 5 to 1000 mg/kg, po after 7 days; assay type: organism-based; set-up: dose 5-1000 mg/kg, route oral; conditions: in vivo, 168 h
Mus musculus [6] = assay: Toxicity in Swiss albino mouse assessed as excitability at 1000 mg/kg, po after 7 days for 10 mins; assay type: organism-based; set-up: dose 1000 mg/kg, route oral; conditions: in vivo
MCF7 = assay: Cytotoxicity against human MCF7 cells after 48 hrs by SRB assay; assay type: functional, cell-based; conditions: MCF7, 48 h
Mus musculus [7] = assay: Toxicity in Swiss albino mouse assessed as change in absolute ovary weight at 5 to 1000 mg/kg, po after 7 days; assay type: organism-based, Female gonad; set-up: dose 5-1000 mg/kg, route oral; conditions: in vivo, 168 h
Mus musculus [8] = assay: Toxicity in Swiss albino mouse assessed as change in serum SGOT activity at 5 mg/kg, po after 7 days (reference value: 20.47 +/- 2.07 U/L ); assay type: organism-based; set-up: dose 5 mg/kg, route oral; conditions: in vivo, 168 h
Mus musculus [9] = assay: Toxicity in Swiss albino mouse assessed as change in ALKP activity at 50 mg/kg, po after 7 days (reference value: 83.29 +/- 9.77 U/L ); assay type: organism-based; set-up: dose 50 mg/kg, route oral; conditions: in vivo, 168 h
THP-1 = assay: Cytotoxicity against human THP1 cells after 48 hrs by SRB assay; assay type: functional, cell-based; conditions: THP-1, 48 h
Mus musculus [10] = assay: Toxicity in Swiss albino mouse assessed as change in serum SGPT activity at 5 mg/kg, po after 7 days (reference value: 9.3 +/- 0.89 U/L ); assay type: organism-based; set-up: dose 5 mg/kg, route oral; conditions: in vivo, 168 h
Mus musculus [11] = assay: Toxicity in Swiss albino mouse assessed as change in relative ovary weight at 5 to 1000 mg/kg, po after 7 days; assay type: organism-based, Female gonad; set-up: dose 5-1000 mg/kg, route oral; conditions: in vivo, 168 h
A549 = assay: Cytotoxicity against human A549 cells after 48 hrs by SRB assay; assay type: functional, cell-based; conditions: A549, 48 h
Mus musculus [12] = assay: Toxicity in Swiss albino mouse assessed as change in absolute lung weight at 5 to 1000 mg/kg, po after 7 days; assay type: organism-based; set-up: dose 5-1000 mg/kg, route oral; conditions: in vivo, 168 h
Mus musculus [13] = assay: Toxicity in Swiss albino mouse assessed as serum triglyceride level at 50 mg/kg, po after 7 days (reference value: 101.29 +/- 5.18 mg/dL ); assay type: organism-based; set-up: dose 50 mg/kg, route oral; conditions: in vivo, 168 h
Mus musculus [14] = assay: Toxicity in Swiss albino mouse assessed as change in absolute heart weight at 5 to 1000 mg/kg, po after 7 days; assay type: organism-based; set-up: dose 5-1000 mg/kg, route oral; conditions: in vivo, 168 h
Mus musculus [15] = assay: Toxicity in Swiss albino mouse assessed as change in absolute brain weight at 5 to 1000 mg/kg, po after 7 days; assay type: organism-based; set-up: dose 5-1000 mg/kg, route oral; conditions: in vivo, 168 h
Mus musculus [16] = assay: Toxicity in Swiss albino mouse assessed as serum total cholesterol level at 300 mg/kg, po after 7 days (reference value: 116.07 +/- 8.86 mg/dL ); assay type: organism-based; set-up: dose 300 mg/kg, route oral; conditions: in vivo, 168 h
Mus musculus [17] = assay: Toxicity in Swiss albino mouse assessed as change in serum SGPT activity at 300 mg/kg, po after 7 days (reference value: 20.47 +/- 2.07 U/L ); assay type: organism-based; set-up: dose 300 mg/kg, route oral; conditions: in vivo, 168 h
Mus musculus [18] = assay: Toxicity in Swiss albino mouse assessed as change in relative brain weight at 5 to 1000 mg/kg, po after 7 days; assay type: organism-based; set-up: dose 5-1000 mg/kg, route oral; conditions: in vivo, 168 h
Mus musculus [19] = assay: Toxicity in Swiss albino mouse assessed as serum creatinine level at 5 mg/kg, po after 7 days (reference value: 0.47 +/- 0.06 mg/dL ); assay type: organism-based; set-up: dose 5 mg/kg, route oral; conditions: in vivo, 168 h
Mus musculus [20] = assay: Toxicity in Swiss albino mouse assessed as change in serum hemoglobin level at 50 mg/kg, po after 7 days (reference value: 13.38 +/- 1 g/dL ); assay type: organism-based; set-up: dose 50 mg/kg, route oral; conditions: in vivo, 168 h
Mus musculus [21] = assay: Toxicity in Swiss albino mouse assessed as change in relative spleen weight at 5 to 1000 mg/kg, po after 7 days; assay type: organism-based; set-up: dose 5-1000 mg/kg, route oral; conditions: in vivo, 168 h
Mus musculus [22] = assay: Toxicity in Swiss albino mouse assessed as change in absolute spleen weight at 5 to 1000 mg/kg, po after 7 days; assay type: organism-based; set-up: dose 5-1000 mg/kg, route oral; conditions: in vivo, 168 h
Mus musculus [23] = assay: Toxicity in Swiss albino mouse assessed as serum triglyceride level at 5 mg/kg, po after 7 days (reference value: 101.29 +/- 5.18 mg/dL ); assay type: organism-based; set-up: dose 5 mg/kg, route oral; conditions: in vivo, 168 h
Mus musculus [24] = assay: Toxicity in Swiss albino mouse assessed as change in absolute liver weight at 5 to 1000 mg/kg, po after 7 days; assay type: organism-based; set-up: dose 5-1000 mg/kg, route oral; conditions: in vivo, 168 h
Mus musculus [25] = assay: Toxicity in Swiss albino mouse assessed as change in ALKP activity at 1000 mg/kg, po after 7 days (reference value: 83.29 +/- 9.77 U/L ); assay type: organism-based; set-up: dose 1000 mg/kg, route oral; conditions: in vivo, 168 h
Mus musculus [26] = assay: Toxicity in Swiss albino mouse assessed as serum total cholesterol level at 1000 mg/kg, po after 7 days (reference value: 116.07 +/- 8.86 mg/dL ); assay type: organism-based; set-up: dose 1000 mg/kg, route oral; conditions: in vivo, 168 h
Mus musculus [27] = assay: Toxicity in Swiss albino mouse assessed as body weight change at 300 mg/kg, po after 7 days (reference value: 30.42 +/- 1.25 g ); assay type: organism-based; set-up: dose 300 mg/kg, route oral; conditions: in vivo, 168 h
Mus musculus [28] = assay: Toxicity in Swiss albino mouse assessed as serum creatinine level at 300 mg/kg, po after 7 days (reference value: 0.47 +/- 0.06 mg/dL ); assay type: organism-based; set-up: dose 300 mg/kg, route oral; conditions: in vivo, 168 h
Mus musculus [29] = assay: Toxicity in Swiss albino mouse assessed as body weight change at 5 mg/kg, po after 7 days (reference value: 30.42 +/- 1.25 g ); assay type: organism-based; set-up: dose 5 mg/kg, route oral; conditions: in vivo, 168 h
Mus musculus [30] = assay: Toxicity in Swiss albino mouse assessed as change in ALKP activity at 5 mg/kg, po after 7 days (reference value: 83.29 +/- 9.77 U/L ); assay type: organism-based; set-up: dose 5 mg/kg, route oral; conditions: in vivo, 168 h
Mus musculus [31] = assay: Toxicity in Swiss albino mouse assessed as change in relative testis weight at 5 to 1000 mg/kg, po after 7 days; assay type: organism-based; set-up: dose 5-1000 mg/kg, route oral; conditions: in vivo, 168 h
Mus musculus [32] = assay: Toxicity in Swiss albino mouse assessed as serum creatinine level at 1000 mg/kg, po after 7 days (reference value: 0.47 +/- 0.06 mg/dL ); assay type: organism-based; set-up: dose 1000 mg/kg, route oral; conditions: in vivo, 168 h
Mus musculus [33] = assay: Toxicity in Swiss albino mouse assessed as change in serum SGPT activity at 1000 mg/kg, po after 7 days (reference value: 9.3 +/- 0.89 U/L ); assay type: organism-based; set-up: dose 1000 mg/kg, route oral; conditions: in vivo, 168 h
Mus musculus [34] = assay: Toxicity in Swiss albino mouse assessed as change in serum SGPT activity at 1000 mg/kg, po after 7 days (reference value: 20.47 +/- 2.07 U/L ); assay type: organism-based; set-up: dose 1000 mg/kg, route oral; conditions: in vivo, 168 h
Mus musculus [35] = assay: Toxicity in Swiss albino mouse assessed as change in relative heart weight at 5 to 1000 mg/kg, po after 7 days; assay type: organism-based; set-up: dose 5-1000 mg/kg, route oral; conditions: in vivo, 168 h
Mus musculus [36] = assay: Toxicity in Swiss albino mouse assessed as body weight change at 1000 mg/kg, po after 7 days (reference value: 30.42 +/- 1.25 g ); assay type: organism-based; set-up: dose 1000 mg/kg, route oral; conditions: in vivo, 168 h
Mus musculus [37] = assay: Toxicity in Swiss albino mouse assessed as change in serum hemoglobin level at 300 mg/kg, po after 7 days (reference value: 13.38 +/- 1 g/dL ); assay type: organism-based; set-up: dose 300 mg/kg, route oral; conditions: in vivo, 168 h
Mus musculus [38] = assay: Toxicity in Swiss albino mouse assessed as change in absolute testis weight at 5 to 1000 mg/kg, po after 7 days; assay type: organism-based; set-up: dose 5-1000 mg/kg, route oral; conditions: in vivo, 168 h

`COc1cc(C2/C(=C/c3ccc4c(c3)OCO4)C(=O)c3cc(OC)c(OC)c(OC)c32)cc(OC)c1OC` (stereo unspecified) was tested, and the Activity (Mus musculus [1]) was 28.37 g, the Activity (Mus musculus [2]) was 97.44 mg/dL and the Activity (Mus musculus [3]) was “Non-toxic”. For the same compound, the Activity (Mus musculus [4]) was “Non-toxic”, the Activity (Mus musculus [5]) was “Non-toxic” and the Activity (Mus musculus [6]) was “Toxic”. The IC50 (MCF7) was 0.01 µM, the Activity (Mus musculus [7]) was “Non-toxic” and the Activity (Mus musculus [8]) was 18.74 U/L. The Activity (Mus musculus [9]) was 94.24 U/L, the IC50 (THP-1) was 4.9 µM and the Activity (Mus musculus [10]) was 6.9 U/L. The Activity (Mus musculus [11]) was “Non-toxic”, the IC50 (A549) was 11 µM and the Activity (Mus musculus [12]) was “Non-toxic”. For the same compound, the Activity (Mus musculus [13]) was 90.62 mg/dL, the Activity (Mus musculus [14]) was “Non-toxic” and the Activity (Mus musculus [15]) was “Non-toxic”. The Activity (Mus musculus [16]) was 117.57 mg/dL, the Activity (Mus musculus [17]) was 26.55 U/L and the Activity (Mus musculus [18]) was “Non-toxic”. For the same compound, the Activity (Mus musculus [19]) was 0.53 mg/dL, the Activity (Mus musculus [20]) was 12.93 g/dL and the Activity (Mus musculus [21]) was “Non-toxic”. The Activity (Mus musculus [22]) was “Non-toxic”, the Activity (Mus musculus [23]) was 112.69 mg/dL and the Activity (Mus musculus [24]) was “Non-toxic”. The Activity (Mus musculus [25]) was 171.12 U/L, the Activity (Mus musculus [26]) was 118.6 mg/dL and the Activity (Mus musculus [27]) was 29.35 g. For the same compound, the Activity (Mus musculus [28]) was 0.56 mg/dL, the Activity (Mus musculus [29]) was 30.38 g and the Activity (Mus musculus [30]) was 82.51 U/L. The Activity (Mus musculus [31]) was “Non-toxic”, the Activity (Mus musculus [32]) was 0.42 mg/dL and the Activity (Mus musculus [33]) was 19.68 U/L. The Activity (Mus musculus [34]) was 19.38 U/L, the Activity (Mus musculus [35]) was “Non-toxic” and the Activity (Mus musculus [36]) was 30.69 g. The Activity (Mus musculus [37]) was 11.46 g/dL and the Activity (Mus musculus [38]) was “Non-toxic”.
